Experimental data taken from patent US20250188095A1, “DISUBSTITUTED OCTAHYDROPYRROLO[3,4-c]PYRROLYL METHYL KETONE DERIVATIVE AND USE THEREOF” (JIANGSU NHWA PHARMACEUTICAL CO., LTD, priority 2022, published 2025).

Tests used:
OX2 receptor = OX2 receptor (Homo sapiens (Human), UniProt O43614); assay: In vitro activity test (Cisbio IP-one, CHO-K1-OX2 cells, antagonism of EC80 agonist); assay type: cell-based
Method: (§1) (1) Preparation of a reaction buffer (1×Stimulation buffer) required for the experiment: The 5×Stimulation buffer and ddH2O in the Cisbio IP-one kit were diluted in a ratio of 1:4 for later use.
(§2) (2) Compound preparation: The compound was diluted with DMSO to obtain a 5 mM stock solution, followed by a 3.16-fold dilution to obtain 10 gradients, and then the prepared compound was diluted with the Stimulation buffer to the corresponding concentrations (4×) for later use.
(§3) (3) Cell preparation: CHO-K1-OX1 and CHO-K1-OX2 cells on the culture dish were digested with trypsin, and the cells were washed off with culture medium and collected into 5 mL centrifuge tubes. The cells were centrifuged at 1000 rpm for 5 min, and the supernatant was discarded. 3 mL of PBS was added, and the mixture was gently pipetted to be mixed well. The cells were centrifuged again at 1000 rpm for 5 min, and the supernatant was discarded. The cells were resuspended in 1×Stimulation buffer and counted using a Countstar cell counter, and the cell density was adjusted to 1.71×10^6 cells/mL for later use.
(§4) (4) Cell addition: The cell suspensions were added to assay plates at 7 μL/well (i.e., about 12,000 cells/well).
(§5) (5) Compound addition: The compound diluted with the Stimulation buffer was added to the assay plates described above at 3.5 μL/well.
(§6) (6) Reaction and incubation: After gentle shaking, the assay plates were incubated at 37° C. for 30 min.
(§7) (7) EC80 agonist addition: 4×Orexin A (OX1 receptor) and 4×Orexin 2 receptor agonist (OX2 receptor) solutions of EC80 were added at 3.5 μL/well.
(§8) (8) Reaction and incubation: After gentle shaking, the assay plates were incubated at 37° C. for 45 min.
(§9) (9) Detection reagent addition: IP1-d2 and Anti-IP1 cryptate were separately diluted in a 1:20 ratio with the Lysis & detection buffer in the Cisbio IP-one detection kit, and the diluted IP1-d2 and Anti-IP1 cryptate described above were added to the assay plates, each at 3 μL/well. After shaking, the assay plates were left to stand at room temperature for 60 min.
(§10) (10) Experimental readings: The plate was read on Envision, readings from the 665 nm and 615 nm channels were taken, and the ratio of 665 nm/615 nm readings was calculated.
(§11) Based on the antagonistic effect values of the compound sample at different concentration test points, antagonistic curves of the compound sample against the orexin receptors were fitted using GraphPad Prism software, and the IC50 was calculated.

OX1 receptor = OX1 receptor (Homo sapiens (Human), UniProt O43613); assay: In vitro activity test (Cisbio IP-one, CHO-K1-OX1 cells, antagonism of EC80 Orexin A); assay type: cell-based
Method: as §1, §2, §3, §4, §5, §6, §7, §8, §9, §10, §11

ICR mice [1] = assay: Autonomous activities of mice; assay type: in vivo; details: male ICR mice; for Inhibition rate (%): vs vehicle; for Movement distance (m): within 60 min, Mean±SD
Method: Male ICR mice aged 6-9 weeks were randomly divided into groups based on body weight balance, with 8 or 9 mice per group, and the groups were given blank vehicle and 10, 30, and 100 mg/kg of the test compound, respectively. The animals were placed in a test chamber immediately after administration, and the activity distances of the animals within 60 min were recorded and analyzed with Top Scan Version 3.0. […] Experimental data were expressed as mean±standard deviation (Mean±SD). One-way ANOVA analysis was performed using SPSS 21.0 statistical software, and pairwise comparisons were performed using Dunnett's test, with p<0.05 represented by *.

[2] = Rat pharmacokinetic parameters in rat plasma; assay type: in vivo; details: male SD rats; for bioavailability: PO 10 mg/kg vs iv 1 mg/kg, read-out: F (%) oral bioavailability
Method: Healthy male SD rats aged 6-9 weeks were selected and randomly divided into two groups, with 3 rats in each group. One group was given 1 mg/kg of the test compound by intravenous injection, and the other group was given 10 mg/kg of the test compound by gavage. Whole blood was collected from the animals in the intravenous group and the gavage group before administration and 0.083, 0.25, 0.5, 1.0, 2.0, 4.0, 7.0, 10.0, and 24.0 h after administration and centrifuged to obtain plasma samples.
All biological samples were quantitatively analyzed using the LC-MS/MS method. Pharmacokinetic parameters were calculated using the non-compartmental model linear-log trapezoidal method using WinNonlinTMVersion7.0 (Pharsight, Mountain View, CA) pharmacokinetic software. AUC0-last represents the area under the plasma concentration-time curve from time point zero to the last detectable concentration time point; PO represents oral administration; iv represents intravenous, Cmax represents the peak concentration, and F % represents oral bioavailability.

ICR mice [3] = assay: Pentobarbital sodium synergistic sleep test; assay type: in vivo; details: male ICR mice, pentobarbital sodium 45 mg/kg ip, Mean±SD
Method: Male ICR mice aged 6-9 weeks were randomly divided into groups based on body weight balance, with 8 mice per group, and the groups were given blank vehicle and 3, 10, and 30 mg/kg of the test compound, respectively. After 5 min, pentobarbital sodium was intraperitoneally injected at 45 mg/kg. The moments when righting reflexes disappeared and the moments when righting reflexes reappeared in mice were recorded. Sleep latency=moment when righting reflex disappeared−moment when pentobarbital sodium was administered, and sleep duration=moment when righting reflex reappeared−moment when righting reflex disappeared. […] Experimental data were expressed as mean±standard deviation (Mean±SD). One-way ANOVA analysis was performed using SPSS 21.0 statistical software, and pairwise comparisons were performed using Dunnett's test, with p<0.05 represented by *.

Sequence of OX2 receptor (O43614 whole entry): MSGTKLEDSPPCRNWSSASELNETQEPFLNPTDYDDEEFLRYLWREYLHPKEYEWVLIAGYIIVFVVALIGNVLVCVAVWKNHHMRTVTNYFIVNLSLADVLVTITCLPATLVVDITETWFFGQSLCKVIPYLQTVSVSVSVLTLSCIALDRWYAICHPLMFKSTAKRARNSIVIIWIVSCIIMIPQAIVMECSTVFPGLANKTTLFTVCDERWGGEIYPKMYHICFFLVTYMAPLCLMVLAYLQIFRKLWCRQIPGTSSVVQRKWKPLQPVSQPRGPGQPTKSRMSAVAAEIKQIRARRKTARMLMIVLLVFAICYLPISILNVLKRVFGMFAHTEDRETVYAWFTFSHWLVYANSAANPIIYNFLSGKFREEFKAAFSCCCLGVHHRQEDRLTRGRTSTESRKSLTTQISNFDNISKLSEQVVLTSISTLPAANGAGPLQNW
Sequence of OX1 receptor (O43613 whole entry): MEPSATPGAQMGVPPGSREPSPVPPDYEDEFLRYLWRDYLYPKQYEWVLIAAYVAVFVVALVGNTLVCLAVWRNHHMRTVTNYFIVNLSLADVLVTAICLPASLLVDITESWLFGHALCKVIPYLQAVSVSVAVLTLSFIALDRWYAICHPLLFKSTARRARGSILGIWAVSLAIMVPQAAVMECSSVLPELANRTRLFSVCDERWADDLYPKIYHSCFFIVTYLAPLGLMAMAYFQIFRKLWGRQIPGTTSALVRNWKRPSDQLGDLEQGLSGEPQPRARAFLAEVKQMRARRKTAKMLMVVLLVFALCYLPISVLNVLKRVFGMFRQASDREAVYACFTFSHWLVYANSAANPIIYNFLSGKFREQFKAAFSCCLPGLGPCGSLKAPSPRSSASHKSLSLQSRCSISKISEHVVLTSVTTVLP

| Structure (SMILES) | IC50 (OX2 receptor) | IC50 (OX1 receptor) | Inhibition rate (%) (ICR mice [1]; 10 mg/kg) | Movement distance (m) (ICR mice [1]; 10 mg/kg) | Inhibition rate (%) (ICR mice [1]; 30 mg/kg) | Movement distance (m) (ICR mice [1]; 30 mg/kg) | Inhibition rate (%) (ICR mice [1]; 100 mg/kg) | Movement distance (m) (ICR mice [1]; 100 mg/kg) | AUC(0-t) ([2]; PO 10 mg/kg) | Cmax ([2]; PO 10 mg/kg) | bioavailability [2] | AUC(0-t) ([2]; iv 1 mg/kg) | Cmax ([2]; iv 1 mg/kg) | Sleep duration (ICR mice [3]; 3 mg/kg) | Sleep latency (ICR mice [3]; 3 mg/kg) | Sleep duration (ICR mice [3]; 10 mg/kg) | Sleep latency (ICR mice [3]; 10 mg/kg) | Sleep duration (ICR mice [3]; 30 mg/kg) | Sleep latency (ICR mice [3]; 30 mg/kg) |
| --- | --- | --- | --- | --- | --- | --- | --- | --- | --- | --- | --- | --- | --- | --- | --- | --- | --- | --- | --- |
| Cc1cc(C)nc(N2C[C@H]3CN(C(=O)c4c(-c5cccs5)nn5ccccc45)C[C@H]3C2)n1 [Example 5, ((3aR,6aS)-5-(4,6-dimethylpyrimidin-2-yl)hexahydropyrrolo[3,4-c]pyrrol-2(1H)-yl)(2-(thiophen-2-yl)pyrazolo[1,5-a]pyridin-3-yl)methanone] | < 100 nM | > 1000 nM | 2.37% | 63.64 ± 33.70 m | 46.97% | 34.56 ± 10.71 m | 49.17% | 33.13 ± 14.64 m |  |  |  |  |  |  |  |  |  |  |  |
| Cc1nc(N2C[C@H]3CN(C(=O)c4c(-c5ccccn5)cn5ccccc45)C[C@H]3C2)nc(C)c1F [Example 24, ((3aR,6aS)-5-(5-fluoro-4,6-dimethylpyrimidin-2-yl)hexahydropyrrolo [3,4-c]pyrrol-2(1H)-yl)(2-(pyridin-2-yl)indolizin-1-yl)methanone] | < 100 nM | > 1000 nM |  |  |  |  |  |  |  |  |  |  |  |  |  |  |  |  |  |
| Cc1nc(N2C[C@H]3CN(C(=O)c4c(-c5ncccc5F)cn5ccccc45)C[C@H]3C2)nc2c1CCC2 [Example 26, (2-(3-fluoropyridin-2-yl)indolizin-1-yl)((3aR,6aS)-5-(4-methyl-6,7-dihydro-5H-cyclopenta[d]pyrimidin-2-yl)hexahydropyrrolo[3,4-c]pyrrol-2(1H)-yl)methanone] | < 100 nM | > 1000 nM |  |  |  |  |  |  |  |  |  |  |  |  |  |  |  |  |  |
| Cc1cc(C)nc(N2C[C@H]3CN(C(=O)c4c(-c5cccs5)cn5ccccc45)C[C@H]3C2)n1 [Example 28] | < 100 nM | > 1000 nM |  |  |  |  |  |  |  |  |  |  |  |  |  |  |  |  |  |
| Cc1cc(C)nc(N2C[C@H]3CN(C(=O)c4c(-c5ccccn5)nn5cc(F)ccc45)C[C@H]3C2)n1 [Example 30, ((3aR,6aS)-5-(4,6-dimethylpyrimidin-2-yl)hexahydropyrrolo[3,4-c]pyrrol-2(1H)-yl)(6-fluoro-2-(pyridin-2-yl)pyrazolo[1,5-a]pyridin-3-yl)methanone] | < 100 nM | > 1000 nM |  |  |  |  |  |  | 353 ng·h/mL | 668 ng/mL | 24.6% | 143 ng·h/mL | 439 ng/mL | 62.34 ± 17.87 min | 5.03 ± 0.51 min | 66.79 ± 14.88 min | 5.17 ± 0.81 min | 65.61 ± 19.83 min | 6.52 ± 5.25 min |
| Cc1cc(C)nc(N2C[C@H]3CN(C(=O)c4c(-c5ccncc5)nn5ccccc45)C[C@H]3C2)n1 [Example 34, ((3aR,6aS)-5-(4,6-dimethylpyrimidin-2-yl)hexahydropyrrolo[3,4-c]pyrrol-2(1H)-yl)(2-(pyridin-4-yl)pyrazolo[1,5-a]pyridin-3-yl)methanone] | < 100 nM | > 1000 nM | 8.19% | 59.84 ± 19.89 m | 28.13% | 46.84 ± 16.61 m | 50.36% | 32.36 ± 20.35 m | 560 ng·h/mL | 925 ng/mL | 25.3% | 221 ng·h/mL | 715 ng/mL |  |  |  |  |  |  |
| Cc1cc(C)nc(N2C[C@H]3CN(C(=O)c4c(-c5cccnc5)nn5ccccc45)C[C@H]3C2)n1 [Example 36, [(3aR,6aS)-5-(4,6-dimethylpyrimidin-2-yl)hexahydropyrrolo[3,4-c]pyrrol-2(1H)-yl][2-(pyridin-3-yl)pyrazolo[1,5-a]pyridin-3-yl]methanone] | < 100 nM | > 1000 nM | 32.08% | 44.27 ± 13.76 m | 34.37% | 42.78 ± 20.27 m | 57.33% | 27.81 ± 19.12 m |  |  |  |  |  | 50.35 ± 9.35 min | 10.21 ± 4.49 min | 38.89 ± 10.66 min | 10.58 ± 5.65 min | 56.19 ± 27.74 min | 8.84 ± 3.67 min |
| Cc1cc(C)nc(N2C[C@H]3CN(C(=O)c4c(-c5cccs5)nn5cc(F)ccc45)C[C@H]3C2)n1 [Example 37, [(3aR,6aS)-5-(4,6-dimethylpyrimidin-2-yl)hexahydropyrrolo[3,4-c]pyrrol-2(1H)-yl][6-fluoro-2-(thiophen-2-yl)pyrazolo[1,5-a]pyridin-3-yl]methanone] | < 100 nM | > 1000 nM | 5.03% | 61.90 ± 16.82 m | 37.27% | 40.89 ± 21.03 m | 39.52% | 39.42 ± 13.92 m |  |  |  |  |  |  |  |  |  |  |  |
